# According to patent US5908924A, “Cloning and expression of the gene encoding thermoanaerobacter ethanolicus 39E secondary-alcohol dehydrogenase and enzyme biochemical characterization” (Michigan State University, priority 1997, dated 1999):
# Substitutions are numbered along the chain they refer to. Entries after “also recorded” stand apart in the source; their conditions may differ. Read-outs that look alike come from different tables or passages of the source.
# T1: recombinant T. ethanolicus 2° Adh (Thermoanaerobacter pseudethanolicus, UniProt B0KBL1)
# T1 sequence (B0KBL1 2-353): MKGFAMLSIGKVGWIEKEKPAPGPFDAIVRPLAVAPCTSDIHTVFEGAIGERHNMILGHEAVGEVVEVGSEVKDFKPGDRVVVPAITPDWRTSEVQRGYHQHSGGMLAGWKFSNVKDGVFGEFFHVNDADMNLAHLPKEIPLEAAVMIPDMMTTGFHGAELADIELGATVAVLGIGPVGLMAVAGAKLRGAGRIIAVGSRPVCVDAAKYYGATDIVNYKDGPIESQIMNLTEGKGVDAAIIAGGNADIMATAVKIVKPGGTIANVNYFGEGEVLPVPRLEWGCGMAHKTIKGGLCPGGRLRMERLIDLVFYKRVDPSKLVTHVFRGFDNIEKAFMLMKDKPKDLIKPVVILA
# B1: recombinant T. ethanolicus 2° Adh (Thermoanaerobacter pseudethanolicus ATCC 33223) (protein)
# chain: T1 sequence (B0KBL1 2-353)
# B2: T. ethanolicus 39E 2° Adh: thermophilic NADP(H)-dependent secondary-alcohol dehydrogenase of Thermoanaerobacter ethanolicus 39E (SEQ ID NO: 2), adhB gene expressed in E. coli, homotetramer (protein)
# chain: T1 sequence (B0KBL1 2-353) with R91W, R313P, R325Q
# B3: C. beijerinckii 2° Adh: mesophilic NADP(H)-dependent secondary-alcohol dehydrogenase of Clostridium beijerinckii (protein, UniProt P25984 1-351, looked up)
# NADP-dependent isopropanol …: MKGFAMLGINKLGWIEKERPVAGSYDAIVRPLAVSPCTSDIHTVFEGALGDRKNMILGHEAVGEVVEVGSEVKDFKPGDRVIVPCTTPDWRSLEVQAGFQQHSNGMLAGWKFSNFKDGVFGEYFHVNDADMNLAILPKDMPLENAVMITDMMTTGFHGAELADIQMGSSVVVIGIGAVGLMGIAGAKLRGAGRIIGVGSRPICVEAAKFYGATDILNYKNGHIVDQVMKLTNGKGVDRVIMAGGGSETLSQAVSMVKPGGIISNINYHGSGDALLIPRVEWGCGMAHKTIKGGLCPGGRLRAEMLRDMVVYNRVDLSKLVTHVYHGFDHIEEALLLMKDKPKDLIKAVVIL
# Tests used:
# [1] = target: T1, recombinant T. ethanolicus 2° Adh; experiment: chemical modification (DTNB, DEPC) and reactivation by DTT with metal salts or EDTA; type: biochemical, Thermoanaerobacter ethanolicus 39E; design: homotetramer; activity recovery of DTNB-inactivated enzyme with DTT plus zinc: dose or concentration left out as unconfirmed; conditions: for effect on enzyme reactivation by DTT after DTNB inactivation: metal salts 0.01 mM to 1.0 mM, EDTA 0.5 mM to 3.0 mM
# Description: Cysteine residues were reversibly modified using dithionitrobenzoate (DTNB) at 25° C. and 60° C.. […] Histidine residues were chemically modified with diethylpyrocarbonate (DEPC) by incubation with 20 mM or 40 mM DEPC in 50 mM phosphate buffer (pH 6.0) at 25° C. for 1.0 h and the reaction was quenched by addition of 0.5×volume of 0.5 M imidazole (pH 6.5).
# T. brockii 2° Adh = conditions: sulfhydryl modification by p-chloromercuribenzoate; cited from earlier work
# [2] = target: T1, recombinant T. ethanolicus 2° Adh; experiment: standard 2° Adh activity assay (NADP+ reduction coupled to alcohol oxidation at 60° C.), Kmapp and Vmaxapp; conditions: for Vmaxapp / Km: 60° C.; for Km: read-out: Kmapp
# Description: (§2) The enzyme was incubated at 55° C. for 15 min prior to activity determination unless otherwise indicated. Assays to determine Kmapp and Vmaxapp were conducted at 60° C. with substrate concentrations between 20×Kmapp and 0.2×Kmapp. Kinetic parameters were calculated from nonlinear best fits of the data to the Michaelis-Menten equation using Kinzyme software [26].
# [3] = substrate: NC(=O)c1ccc[n+]([C@@H]2O[C@H](COP(=O)([O-])OP(=O)(O)OC[C@H]3O[C@@H](n4cnc5c(N)ncnc54)[C@H](OP(=O)(O)O)[C@@H]3O)[C@@H](O)[C@H]2O)c1; experiment: purified protein, by the assay type; conditions: other: 60° C.
# Description: as §2
# [4] = cited from earlier work; for time to complete inactivation: at 70° C.
# [5] = 2° Adh thermostability: residual activity after timed incubation at the desired temperatures; type: physicochemical
# Description: (§1) 2° Adh thermostability was measured as the residual activity after timed incubation at the desired temperatures. Thermal inactivation was stopped by incubation for 30 min at 25° C., and samples were prepared for activity assays by preincubation at 55° C. for 15 min. Incubations were performed in […] (cat. #72.733.050, Sarstedt; Newton, N.C.) using […] protein in […]. Activity was determined using the unfractionated samples. The temperature effect on enzyme activity was studied using the substrates propan-2-ol or ethanol at 10×Kmapp concentrations.
# [6] = 2° Adh activity: standard assay and temperature effect on enzyme activity (Arrhenius plots); type: biochemical; conditions: for Arrhenius plot discontinuity temperature: enzyme preincubated at 0° C. or 25° C.
# Description: as §1
# To study the effect of enzyme preincubation temperature on enzyme reaction rates, the 2° Adh was incubated at 0° C., 25° C., or 55° C. for 15 min prior to activity determinations in the temperature range 30-90° C. Tris-HCl buffer pH values were adjusted at 25° C. to be pH 8.0 at the temperature they were used (thermal correction factor=-0.031 ΔpH °C.^-1). The statistical significance of the differences between the Arrhenius plot slopes above and below the discontinuity temperatures was determined by covariance analysis.
molecule,measurement,setting,value
"O[C@H](CS)[C@H](O)CS (racemic) [DTT, dithiothreitol]",recovery of initial activity of DTNB-inactivated enzyme,"[1]; 60° C., DTT, no added metal",34%
[Ca+2].[Cl-].[Cl-] [CaCl2],effect on enzyme reactivation by DTT after DTNB inactivation,[1],did not affect enzyme reactivation by DTT
O=S(=O)([O-])[O-].[Cd+2] [CdSO4],effect on enzyme reactivation by DTT after DTNB inactivation,[1],did not affect enzyme reactivation by DTT
[Cl-].[Cl-].[Co+2] [CoCl2],"recovered activity of DTNB-inactivated enzyme with DTT plus added metal salt, of the initial activity",[1]; 60° C.,10%
"CCOC(=O)OC(=O)OCC [DEPC, diethylpyrocarbonate]",enzyme inactivation by modification of histidine residues,"[1]; 20 mM or 40 mM DEPC, pH 6.0, 25° C., 1.0 h",completely inactivated; also recorded: complete enzyme inactivation
"O=C([O-])CN(CCN(CC(=O)[O-])CC(=O)O)CC(=O)[O-].[Na+].[Na+].[Na+] [EDTA, (ethylenedinitrilo) tetraacetic acid trisodium salt]",effect on enzyme reactivation by DTT after DTNB inactivation,[1]; trisodium salt,did not affect enzyme reactivation by DTT; also recorded: inability of EDTA to reduce the rate of reactivation
[Cl][Fe][Cl] [FeCl2],effect on enzyme reactivation by DTT after DTNB inactivation,[1],did not affect enzyme reactivation by DTT
[Cl-].[Cl-].[Mg+2] [MgCl2],effect on enzyme reactivation by DTT after DTNB inactivation,[1],did not affect enzyme reactivation by DTT
[Cl][Mn][Cl] [MnCl2],effect on enzyme reactivation by DTT after DTNB inactivation,[1],did not affect enzyme reactivation by DTT
[Cl-].[Na+] [NaCl],effect on enzyme reactivation by DTT after DTNB inactivation,[1],did not affect enzyme reactivation by DTT
[Cl][Ni][Cl] [NiCl2],"recovered activity of DTNB-inactivated enzyme with DTT plus added metal salt, of the initial activity",[1]; 60° C.,15%
[Cl-].[Cl-].[Zn+2] [ZnCl2],activity recovery of DTNB-inactivated enzyme with DTT plus zinc,[1]; in the presence of ZnCl2,up to 48%
same,inactivation and recovery of activity of T. brockii 2° Adh,T. brockii 2° Adh,recovered activity only in the presence of ZnCl2
CCO [ethanol],Vmaxapp,[2],10 U mg^-1
same,Kmapp toward the 1° alcohol relative to the 2° alcohol,[2]; higher than for propan-2-ol,~43 fold
same,Km,[2],47000 µM
O=C(O)c1cc[c]([Hg][Cl])cc1 [p-chloromercuribenzoate],inactivation and recovery of activity of T. brockii 2° Adh,T. brockii 2° Adh,inactivated
CC(C)O [propan-2-ol],Vmaxapp,[2],47 U mg^-1
same,Km,[2],1100 µM
NAD(H),NAD(H) dependent activity,[2],no NAD(H) dependent activity was detected
B1,Km,[3],11 µM
same,activity retained after incubation,[4]; incubation for 30 minutes at 91° C.,40%
B2,thermostability and thermophilicity compared with other 2° Adhs,[5],more thermostable and thermophilic
same,half-life,"[5]; at 90° C., recombinant enzyme",1.7 h
same,time for which detectable activity was retained,[5]; incubated at 90° C.,retained detectable activity for more than one hour
same,activity retained after incubation,[5]; incubation for more than one hour at 90° C.,100%
same,"difference between activation energies above and below the discontinuity (Δ), ethanol oxidation relative to propan-2-ol oxidation",[6],at least 3 fold
same,initial activity,[6]; before DTNB modification,54±3.0 U mg^-1
same,Arrhenius plot form,"[6]; ethanol oxidation, enzyme incubated at 55° C. prior to assay (FIG. 2B)",distinct discontinuity
same,Arrhenius plot discontinuity temperature,[6]; ethanol oxidation,~ 46 °C
same,temperature range of activity,"[6]; propan-2-ol oxidation, recombinant enzyme (FIG. 2A)",detected below 25 °C and increased to beyond 90 °C
same,Arrhenius plot form,"[6]; propan-2-ol oxidation, enzyme incubated at 55° C. prior to assay",linear from 25 °C to 90 °C
same,Arrhenius plot discontinuity temperature,[6]; propan-2-ol oxidation,~ 55 °C
B3,time to complete inactivation,[4],≤ 10 min
same,time to complete inactivation,[4]; listed as C. beijerinckii,≤ 10 min
